PubChem BioAssay (NCI)
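Method: 48-hour compound exposure of cells in 96-well plates, five concentrations, linear interpolation of endpoints. GI50 marks 50% less growth. TGI marks complete inhibition of growth.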

Columns and labels:
Experiment in all cases: inhibition of tumour cell growth, NCI panel, 48 h
[1] = system: MDA-MB-435
[2] = system: UACC-257 melanoma
[3] = system: NCI-H522 lung
[4] = system: CCRF-CEM leukemia
[5] = system: SN12C renal
[6] = system: NCI-H226 lung
[7] = system: HS 578T breast
[8] = system: BT-549 breast
[9] = system: HCC-2998 colon
[10] = system: SF-295 CNS

| Compound | GI50 [1] | TGI [1] | GI50 [2] | TGI [2] | GI50 [3] | TGI [3] | GI50 [4] | TGI [4] | GI50 [5] | TGI [5] | GI50 [6] | TGI [6] | GI50 [7] | TGI [7] | GI50 [8] | TGI [8] | GI50 [9] | TGI [9] | GI50 [10] | TGI [10] |
| --- | --- | --- | --- | --- | --- | --- | --- | --- | --- | --- | --- | --- | --- | --- | --- | --- | --- | --- | --- | --- |
| N#Cc1c2ccccc2c2n1-c1ccccc1OC(c1ccccc1)C2=O (stereo not given) | 2.88 µM | 9.19 µM | 3.82 µM | 17.6 µM | 2.06 µM | 4.72 µM | 2.66 µM | 10.9 µM | 3.48 µM | 14.9 µM | 3.09 µM | 11.7 µM | 3.53 µM | 37 µM | 2.84 µM | 7.76 µM | 15.5 µM | 85.8 µM | 3.42 µM | 34.4 µM |
| COc1cc(C(=O)/C=C/c2c(-c3ccc(F)cc3)nc3sc(C)cn23)cc(OC)c1OC | 1.75 µM | 6.92 µM | 4.75 µM | > 100 µM | 2.96 µM | > 100 µM | 7.19 µM | > 100 µM | 9.01 µM | > 100 µM | 9.58 µM | > 100 µM | 8.29 µM | > 100 µM | 3.75 µM | > 100 µM | 9.93 µM | > 100 µM | 2.33 µM | 26.7 µM |
| N#Cc1cccc(C(=O)c2cnn(-c3ccc(F)cc3)c2N)c1 | > 25 µM | > 25 µM | > 25 µM | > 25 µM | > 25 µM | > 25 µM | > 25 µM | > 25 µM | > 25 µM | > 25 µM | > 25 µM | > 25 µM | > 25 µM | > 25 µM | > 25 µM | > 25 µM | > 25 µM | > 25 µM | > 20.1 µM | > 25 µM |
| CCN(CC)c1ccc(N=C2C=C(C(=O)Nc3ccc(S(C)(=O)=O)cc3)C(=O)c3ccccc32)c(C)c1 | 7.49 µM | 54.8 µM | > 100 µM | > 100 µM | 16.7 µM | > 100 µM | > 100 µM | > 100 µM | > 100 µM | > 100 µM | > 100 µM | > 100 µM | 1.87 µM | > 100 µM | 0.831 µM | > 100 µM | > 100 µM | > 100 µM | 3.32 µM | 39.5 µM |
| O=C(Nc1ccc(Cl)cc1)c1cc2c(cc1O)[nH]c1ccccc12 | 2.12 µM | 5.85 µM | 2.48 µM | 6.66 µM | 2.88 µM | 10.6 µM | 4.37 µM | > 100 µM | 2.93 µM | 11.3 µM | 2.52 µM | 9.46 µM | 3.08 µM | 14.5 µM | 2.29 µM | 6.1 µM | 2 µM | 5.27 µM | 1.67 µM | 3.87 µM |
